Experimental data taken from patent US9382254B2, “Compounds and pharmaceutical compositions thereof for the treatment of cystic fibrosis” (Galapagos NV, priority 2013, dated 2016).

How the values were obtained:
[1] = biological target: T1, CFTR ΔF508 mutant (Homo sapiens, UniProt P13569, DEL508-508); experiment: YFP-halide influx assay for the CFTR-ΔF508 mutation (384 well, FDSS/μCell); type: cell-based; details: CFBE41o- cells, CFTR-ΔF508, 1×D-PBS, fluorescence after 36 seconds
T1 construct: expressed in transfected cells; host or cells: CFBE41o- (adenoviral transduction)
Source text: The YFP halide influx assay measures the functionality of the cystic fibrosis Transmembrane Conductance regulator (CFTR) channels in the cystic fibrosis bronchial epithelium cell line CFBE41o-. The assay is used to evaluate the capacity of compounds to increase the open probability of existing CFTR channels in the membrane. It makes use of the observation that the yellow fluorescent protein (YFP) variant YFP H148Q, I152L has its fluorescence substantially quenched by halide ions like Cl— and I—. (Galietta, Haggie, & Verkman, 2001) (Nagai, et al., 2002)
For this purpose, CFBE41o-cells are seeded in 384 well plates (3000 CFBE cells/well). One day after seeding, the CFBE cells are transduced with adenoviral vectors that direct the expression of the CFTR ΔF508 mutant and of the YFP reporter. Cells are incubated at 27° C., 5% CO2 for 24 hours so as to allow for the proper folding and migration to the membrane of the CFTR channel or treated with a CFTR modulator during 24 h at 37° C.
(§1) The I— induced quenching of fluorescence is recorded on an immediately after injection of I— for 2 min on an FDSS/μCell (Hamamatsu). The capacity of a compound to increase the channel opening is directly correlated with the decrease in fluorescence, and is expressed as (1-(fluorescence after 36 seconds (F)/fluorescence before injection (F0))) and an EC50 can be derived from a (1-F/F0) vs compound concentration plot.

[2] = biological target: T2, CFTR G551D mutant (Homo sapiens, UniProt P13569, G551D); experiment: YFP-halide influx assay for the CFTR-G551D mutation; type: cell-based; details: HEK293 cells, forskolin 10.67 μM
T2 construct: expressed in transfected cells; host or cells: HEK293 (reverse transfection with plasmid)
Source text: The YFP halide influx assay measures the functionality of the cystic fibrosis Transmembrane Conductance regulator (CFTR) channels. The assay is used to evaluate the capacity of compounds to increase the channel opening of existing mutant CFTR channels in the membrane. It makes use of the observation that the yellow fluorescent protein (YFP) variant YFP H148Q, I152L, […] has its fluorescence substantially quenched by halide ions like Cl^− and I^−. (Galietta, Haggie, & Verkman, 2001)
For this purpose, HEK293-cells are seeded in 96 well plates. During seeding, the cells are reverse-transfected with plasmid vectors that direct the expression of the CFTR G551D mutant and of the YFP reporter. Cells are incubated at 37° C., 5% CO2 for 24 hours so as to allow for sufficient expression of the CFTR protein.
as §1, with “I^−-induced” for “I— induced”, “recorded” for “recorded on an”, “I^−” for “I—”, “7 seconds.” for “2 min on an FDSS/μCell (Hamamatsu).”, “7” for “36”

T2 sequence (P13569 whole entry G551D): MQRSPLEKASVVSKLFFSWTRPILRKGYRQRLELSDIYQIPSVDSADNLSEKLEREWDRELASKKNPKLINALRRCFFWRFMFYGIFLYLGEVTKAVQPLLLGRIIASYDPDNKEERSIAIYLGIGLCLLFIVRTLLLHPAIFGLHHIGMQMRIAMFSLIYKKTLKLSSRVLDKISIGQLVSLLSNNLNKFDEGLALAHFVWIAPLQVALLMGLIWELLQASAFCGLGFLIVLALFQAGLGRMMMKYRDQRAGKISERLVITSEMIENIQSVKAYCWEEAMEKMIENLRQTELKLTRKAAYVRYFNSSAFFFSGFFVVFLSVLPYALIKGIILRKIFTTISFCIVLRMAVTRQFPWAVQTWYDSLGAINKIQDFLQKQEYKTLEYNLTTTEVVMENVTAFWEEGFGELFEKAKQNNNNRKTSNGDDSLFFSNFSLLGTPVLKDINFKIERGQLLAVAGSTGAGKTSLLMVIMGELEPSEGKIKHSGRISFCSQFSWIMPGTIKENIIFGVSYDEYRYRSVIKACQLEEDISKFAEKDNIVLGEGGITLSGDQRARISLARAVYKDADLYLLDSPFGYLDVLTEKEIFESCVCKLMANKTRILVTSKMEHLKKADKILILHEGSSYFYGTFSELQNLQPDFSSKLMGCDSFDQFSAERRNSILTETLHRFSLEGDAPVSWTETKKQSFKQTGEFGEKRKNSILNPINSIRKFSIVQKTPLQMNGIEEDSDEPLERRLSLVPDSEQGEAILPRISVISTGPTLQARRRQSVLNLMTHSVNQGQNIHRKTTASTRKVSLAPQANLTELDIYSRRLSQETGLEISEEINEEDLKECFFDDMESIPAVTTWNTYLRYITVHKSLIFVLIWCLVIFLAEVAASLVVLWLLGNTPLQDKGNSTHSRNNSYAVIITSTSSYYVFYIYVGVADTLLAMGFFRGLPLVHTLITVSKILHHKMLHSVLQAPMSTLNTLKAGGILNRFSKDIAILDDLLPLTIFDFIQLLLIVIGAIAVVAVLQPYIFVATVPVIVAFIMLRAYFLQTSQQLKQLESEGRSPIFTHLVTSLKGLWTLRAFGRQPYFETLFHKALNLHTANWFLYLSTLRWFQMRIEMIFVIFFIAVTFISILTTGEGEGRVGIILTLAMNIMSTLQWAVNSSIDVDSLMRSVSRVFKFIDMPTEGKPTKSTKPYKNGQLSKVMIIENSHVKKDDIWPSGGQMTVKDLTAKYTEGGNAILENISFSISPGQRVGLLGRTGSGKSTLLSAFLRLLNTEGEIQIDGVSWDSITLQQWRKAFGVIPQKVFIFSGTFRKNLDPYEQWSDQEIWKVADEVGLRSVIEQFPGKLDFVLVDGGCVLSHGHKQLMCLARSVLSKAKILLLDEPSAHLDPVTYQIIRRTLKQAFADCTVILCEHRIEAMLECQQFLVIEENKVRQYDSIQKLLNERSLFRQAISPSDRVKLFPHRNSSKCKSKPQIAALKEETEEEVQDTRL
T1 sequence (P13569 with tags, fused parts or gaps DEL508-508): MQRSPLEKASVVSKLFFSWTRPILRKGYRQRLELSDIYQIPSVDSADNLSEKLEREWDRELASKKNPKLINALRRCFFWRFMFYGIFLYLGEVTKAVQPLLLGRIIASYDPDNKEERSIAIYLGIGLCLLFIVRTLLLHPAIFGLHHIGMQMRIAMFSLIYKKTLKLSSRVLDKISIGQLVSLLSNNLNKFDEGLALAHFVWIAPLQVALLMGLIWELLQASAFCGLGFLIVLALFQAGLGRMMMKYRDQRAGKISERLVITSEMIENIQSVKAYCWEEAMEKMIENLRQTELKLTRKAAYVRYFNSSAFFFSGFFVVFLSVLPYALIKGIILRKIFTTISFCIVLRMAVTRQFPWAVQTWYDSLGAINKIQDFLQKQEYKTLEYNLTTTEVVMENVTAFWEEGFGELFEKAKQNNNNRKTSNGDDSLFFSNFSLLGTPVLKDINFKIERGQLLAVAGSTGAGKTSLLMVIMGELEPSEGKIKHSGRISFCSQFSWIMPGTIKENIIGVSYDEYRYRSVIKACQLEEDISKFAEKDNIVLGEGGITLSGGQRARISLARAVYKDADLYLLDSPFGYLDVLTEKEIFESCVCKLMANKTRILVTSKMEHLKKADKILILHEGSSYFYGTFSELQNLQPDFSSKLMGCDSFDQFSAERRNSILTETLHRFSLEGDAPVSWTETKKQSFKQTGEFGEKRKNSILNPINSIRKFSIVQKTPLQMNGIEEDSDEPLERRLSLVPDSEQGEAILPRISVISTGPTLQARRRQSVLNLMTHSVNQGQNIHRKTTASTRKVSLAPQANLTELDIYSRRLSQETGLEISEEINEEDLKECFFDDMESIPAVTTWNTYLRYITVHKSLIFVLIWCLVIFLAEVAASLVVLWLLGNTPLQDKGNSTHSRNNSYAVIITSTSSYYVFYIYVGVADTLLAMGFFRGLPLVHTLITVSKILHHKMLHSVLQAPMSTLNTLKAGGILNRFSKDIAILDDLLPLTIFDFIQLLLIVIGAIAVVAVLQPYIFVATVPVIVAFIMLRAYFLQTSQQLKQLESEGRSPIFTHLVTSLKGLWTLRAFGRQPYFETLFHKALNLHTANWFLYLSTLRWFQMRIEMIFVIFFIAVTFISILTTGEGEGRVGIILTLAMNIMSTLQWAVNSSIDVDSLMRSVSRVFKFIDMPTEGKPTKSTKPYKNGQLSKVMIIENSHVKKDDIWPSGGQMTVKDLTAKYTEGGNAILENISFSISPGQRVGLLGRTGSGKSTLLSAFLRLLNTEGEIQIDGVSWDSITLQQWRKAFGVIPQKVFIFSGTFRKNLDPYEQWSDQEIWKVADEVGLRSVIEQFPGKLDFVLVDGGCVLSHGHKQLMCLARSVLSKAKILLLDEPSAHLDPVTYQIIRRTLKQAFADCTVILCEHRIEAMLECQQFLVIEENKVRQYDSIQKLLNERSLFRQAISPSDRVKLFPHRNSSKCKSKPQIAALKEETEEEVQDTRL

An EC50 [1] of 5.4 nM and an EC50 [2] of 942 nM were found for `C[C@H](O)C(=O)Nc1sc(S(=O)(=O)c2c(Cl)cc(F)cc2Cl)cc1C(N)=O` [Compound 355, 5-(2,6-dichloro-4-fluoro-phenyl)sulfonyl-2-[[(2S)-2-hydroxypropanoyl]amino] thiophene-3-carboxamide] in this work.

An EC50 [1] of 17.2 nM and an EC50 [2] of 502 nM were found for `CC(C)[C@H](O)C(=O)Nc1sc(S(=O)(=O)c2ccc(F)cc2C(F)(F)F)cc1C(N)=O` [Compound 356, 5-[4-fluoro-2-(trifluoromethyl)phenyl] sulfonyl-2-[[(2S)-2-hydroxy-3-methyl-butanoyl]amino] thiophene-3-carboxamide] in this work.

An EC50 [1] of 29.7 nM and an EC50 [2] of 301 nM were found for `NC(=O)c1cc(S(=O)(=O)c2ccc(OC(F)(F)F)cc2)sc1NC(=O)C1(CO)CC1` [Compound 357, 2-[[1-(hydroxymethyl)cyclopropanecarbonyl]amino]-5-[4-(trifluoromethoxy)phenyl] sulfonyl-thiophene-3-carboxamide] in this work.

An EC50 [1] of 110 nM and an EC50 [2] of 2680 nM were found for `CC(C)(O)C(=O)Nc1sc(S(=O)(=O)c2ccc(Cl)cc2)cc1C(N)=O` [Compound 358, 5-(4-chlorophenyl)sulfonyl-2-[(2-hydroxy-2-methyl-propanoyl)amino] thiophene-3-carboxamide] in this work.

An EC50 [1] of 9.63 nM and an EC50 [2] of 2060 nM were found for `CC(CO)C(=O)Nc1sc(S(=O)(=O)c2ccc(F)cc2C(F)(F)F)cc1C(N)=O` (stereo not drawn) [Compound 359, 5-[4-fluoro-2-(trifluoromethyl)phenyl] sulfonyl-2-[(3-hydroxy-2-methyl-propanoyl)amino] thiophene-3-carboxamide] in this work.

An EC50 [1] of 7.01 nM and an EC50 [2] of 280 nM were found for `CC(C)[C@H](O)C(=O)Nc1sc(S(=O)(=O)c2ccc(F)cc2Cl)cc1C(N)=O` [Compound 361, 5-(2-chloro-4-fluoro-phenyl)sulfonyl-2-[[(2S)-2-hydroxy-3-methyl-butanoyl]amino] thiophene-3-carboxamide] in this work.

An EC50 [1] of 22.3 nM and an EC50 [2] of 1230 nM were found for `CC(CO)C(=O)Nc1sc(S(=O)(=O)c2ccc(Cl)cc2)cc1C(N)=O` (stereo not drawn) [Compound 362, 5-(4-chlorophenyl)sulfonyl-2-[(3-hydroxy-2-methyl-propanoyl)amino] thiophene-3-carboxamide] in this work.

An EC50 [1] of 30.4 nM and an EC50 [2] of 366 nM were found for `NC(=O)c1cc(S(=O)(=O)c2ccc(OC(F)(F)F)cc2)sc1NC(=O)C1(CO)CCC1` [Compound 364, 2-[[1-(hydroxymethyl)cyclobutanecarbonyl]amino]-5-[4-(trifluoromethoxy)phenyl] sulfonyl-thiophene-3-carboxamide] in this work.

An EC50 [1] of 29.9 nM and an EC50 [2] of 306 nM were found for `CC(C)(C)[C@H](O)C(=O)Nc1sc(S(=O)(=O)c2ccc(C(F)(F)F)cc2)cc1C(N)=O` [Compound 365, 2-[[(2S)-2-hydroxy-3,3-dimethyl-butanoyl]amino]-5-[4-(trifluoromethyl)phenyl] sulfonyl-thiophene-3-carboxamide] in this work.

An EC50 [1] of 2.5 nM and an EC50 [2] of 57.4 nM were found for `COc1ccc(OC(F)(F)F)c(S(=O)(=O)c2cc(C(N)=O)c(NC(=O)C(C)CO)s2)c1` (stereo not drawn) [Compound 370, 2-[(3-hydroxy-2-methyl-propanoyl)amino]-5-[5-methoxy-2-(trifluoromethoxy)phenyl]sulfonyl-thiophene-3-carboxamide] in this work.

An EC50 [1] of 107 nM and an EC50 [2] of 3330 nM were found for `COCCOc1ccc(S(=O)(=O)c2cc(C(N)=O)c(NC(=O)C(C)(C)O)s2)cc1` [Compound 371, 2-[(2-hydroxy-2-methyl-propanoyl)amino]-5-[4-(2-methoxyethoxy)phenyl] sulfonyl-1-thiophene-3-carboxamide] in this work.

An EC50 [1] of 4.8 nM and an EC50 [2] of 72.6 nM were found for `CC(C)(O)C(=O)Nc1sc(S(=O)(=O)c2cc(C#N)ccc2OC(F)(F)F)cc1C(N)=O` [Compound 372, 5-[5-cyano-2-(trifluoromethoxy)phenyl] sulfonyl-2-[(2-hydroxy-2-methyl-propanoyl)amino] thiophene-3-carboxamide] in this work.
